Experimental data: patent US10294202B2, “Pyrrolidinones as herbicides” (FMC Corporation, priority 2013, dated 2019)

Columns and labels:
wheat = assay: Test A pre-/postemergence herbicide test; type: in vivo, Triticum aestivum
Outline: (§1)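 Both application timings used compounds in a non-phytotoxic solvent plus surfactant. Pre-emergence: soil sprayed directly after seeding into loam/sand. Post-emergence: foliage of 2–10 cm seedlings (1–2 leaves) sprayed. Injury rated ~10 days later, 0–100.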

kochia = assay: Test A pre-/postemergence herbicide test; type: in vivo, Kochia scoparia; details: for Plant response rating, Kochia: 0 to 100 scale
Outline: as §1

galium = assay: Test A postemergence herbicide test; type: in vivo, Galium aparine
Outline: (§2)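 Potted in loam soil/sand blend; postemergence application at 1–2 leaf stage (2–10 cm). Greenhouse ~10 d. Visual injury vs untreated, 0–100 scale; 100 = complete control.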

rice = assay: Test C flooded paddy test; type: in vivo, Oryza sativa; details: Flood
Outline: (§3)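 Ratings reflect visual comparison with controls on a 0–100 scale, where 100 is complete control. Compound is dosed into standing paddy water 3 cm deep over 2-leaf-stage plants, kept in the greenhouse 13 to 15 days.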

barnyardgrass [1] = assay: Test A pre-/postemergence herbicide test; type: in vivo, Echinochloa crus-galli; details: for Barnyardgrass plant response rating: Preemergence, visual rating on 0 to 100 scale (0 no effect, 100 complete control)
Outline: as §1

corn = assay: Test A pre-/postemergence herbicide test; type: in vivo, Zea mays
Outline: as §1

giant foxtail = assay: Test A pre-/postemergence herbicide test; type: in vivo, Setaria faberii; details: for Foxtail, Giant plant response rating: Preemergence, visual rating on 0 to 100 scale (0 no effect, 100 complete control)
Outline: as §1

blackgrass = assay: Test A postemergence herbicide test; type: in vivo, Alopecurus myosuroides
Outline: as §2

ryegrass, Italian = assay: Test A pre-/postemergence herbicide test; type: in vivo, Lolium multiflorum; details: for Plant response rating, Ryegrass, Italian: 0 to 100 scale
Outline: as §1

ragweed = assay: Test A pre-/postemergence herbicide test; type: in vivo, Ambrosia elatior; details: for Plant response rating, Ragweed: 0 to 100 scale
Outline: as §1

pigweed = assay: Test A pre-/postemergence herbicide test; type: in vivo, Amaranthus retroflexus; details: for Pigweed plant response rating: Preemergence, visual rating on 0 to 100 scale (0 no effect, 100 complete control)
Outline: as §1

sedge, umbrella = assay: Test C flooded paddy test; type: in vivo, Cyperus difformis; details: Flood
Outline: as §3

barnyardgrass [2] = assay: Test C flooded paddy test; type: in vivo, Echinochloa crus-galli; details: Flood
Outline: as §3

ducksalad = assay: Test C flooded paddy test; type: in vivo, Heteranthera limosa; details: Flood
Outline: as §3

crabgrass, large = assay: Test A pre-/postemergence herbicide test; type: in vivo, Digitaria sanguinalis
Outline: as §1

velvetleaf = assay: Test A pre-/postemergence herbicide test; type: in vivo, Abutilon theophrasti
Outline: as §1

morningglory = assay: Test A pre-/postemergence herbicide test; type: in vivo, Ipomoea spp.
Outline: as §1

[3] = Postemergence, 125 g ai/ha, 0 to 100 scale, 0 no effect, 100 complete control
[4] = Postemergence, 125 g ai/ha, 0 no effect, 100 complete control
[5] = Preemergence, 125 g ai/ha, visual rating on 0 to 100 scale (0 no effect, 100 complete control)
[6] = 125 g ai/ha, 0 to 100 scale, 0 no effect, 100 complete control
[7] = 125 g ai/ha, scale of 0 to 100 where 0 is no effect and 100 is complete control, 13 to 15 days
[8] = Postemergence, 500 g ai/ha, 0 to 100 scale (0 no effect, 100 complete control)
[9] = preemergence, 500 g ai/ha, 0 to 100 scale (0 no effect, 100 complete control)
[10] = preemergence, 500 g ai/ha, 0 to 100 scale

O=C1NCC(c2cccc(C(F)(F)F)c2)C1C(=O)Nc1nncs1 (racemic) [Compound 111]
Plant response rating, Wheat (wheat; [3]): 0 | Wheat plant response rating (0 to 100 scale, 0 is no effect, 100 is complete control) (wheat; Postemergence, 500 g ai/ha): 0 | Plant response rating, Kochia (kochia; [4]): 0 | Kochia plant response rating (0 to 100 scale, 0 is no effect, 100 is complete control) (kochia; Postemergence, 500 g ai/ha): 0 | Kochia plant response rating (kochia; [5]): 0 | Plant response rating, Kochia (kochia; preemergence, 500 g ai/ha): 0 | Plant response rating, Galium (galium; [6]): 0 | Galium plant response rating (0 to 100 scale, 0 is no effect, 100 is complete control) (galium; 500 g ai/ha): 0 | Plant response rating, Rice (rice; [7]): 0 | Plant response rating, Rice (rice; 250 g ai/ha, scale 0 to 100): 0 | Plant response rating, Rice (rice; 500 g ai/ha, scale 0 to 100): 0 | Plant response rating, Rice (rice; 1000 g ai/ha, scale 0 to 100): 0 | Plant response rating, Barnyardgrass (barnyardgrass [1]; [3]): 0 | Plant response rating, Barnyardgrass (barnyardgrass [1]; [8]): 0 | Barnyardgrass plant response rating (barnyardgrass [1]; 125 g ai/ha): 0 | Plant response rating, Barnyardgrass (barnyardgrass [1]; [9]): 0 | Plant response rating, Corn (corn; [3]): 0 | Plant response rating, Corn (corn; [8]): 0 | Plant response rating, Foxtail, Giant (giant foxtail; [3]): 0 | Foxtail, Giant plant response rating (0 to 100 scale, 0 is no effect, 100 is complete control) (giant foxtail; Postemergence, 500 g ai/ha): 0 | Foxtail, Giant plant response rating (giant foxtail; 125 g ai/ha): 0 | Plant response rating, Foxtail, Giant (giant foxtail; [10]): 0 | Plant response rating, Blackgrass (blackgrass; [6]): 0 | Plant response rating, Blackgrass (blackgrass; 500 g ai/ha, 0 to 100 scale (0 no effect, 100 complete control)): 0 | Plant response rating, Ryegrass, Italian (ryegrass, Italian; [4]): 0 | Ryegrass, Italian plant response rating (0 to 100 scale, 0 is no effect, 100 is complete control) (ryegrass, Italian; Postemergence, 500 g ai/ha): 0 | Ryegrass, Italian plant response rating (ryegrass, Italian; [5]): 0 | Plant response rating, Ryegrass, Italian (ryegrass, Italian; preemergence, 500 g ai/ha): 0 | Plant response rating, Ragweed (ragweed; [4]): 0 | Ragweed plant response rating (0 to 100 scale, 0 is no effect, 100 is complete control) (ragweed; Postemergence, 500 g ai/ha): 0 | Ragweed plant response rating (ragweed; [5]): 0 | Plant response rating, Ragweed (ragweed; preemergence, 500 g ai/ha): 0 | Plant response rating, Pigweed (pigweed; [3]): 0 | Pigweed plant response rating (0 to 100 scale, 0 is no effect, 100 is complete control) (pigweed; Postemergence, 500 g ai/ha): 0 | Pigweed plant response rating (pigweed; 125 g ai/ha): 0 | Plant response rating, Pigweed (pigweed; [10]): 0 | Plant response rating, Sedge, Umbrella (sedge, umbrella; [7]): 0 | Plant response rating, Sedge, Umbrella (sedge, umbrella; 250 g ai/ha, scale 0 to 100): 0 | Plant response rating, Sedge, Umbrella (sedge, umbrella; 500 g ai/ha, scale 0 to 100): 0 | Plant response rating, Sedge, Umbrella (sedge, umbrella; 1000 g ai/ha, scale 0 to 100): 0 | Plant response rating, Barnyardgrass (barnyardgrass [2]; [7]): 0 | Plant response rating, Barnyardgrass (barnyardgrass [2]; 250 g ai/ha, scale 0 to 100): 0 | Plant response rating, Barnyardgrass (barnyardgrass [2]; 500 g ai/ha, scale 0 to 100): 0 | Plant response rating, Barnyardgrass (barnyardgrass [2]; 1000 g ai/ha, scale 0 to 100): 0 | Plant response rating, Ducksalad (ducksalad; [7]): 0 | Plant response rating, Ducksalad (ducksalad; 250 g ai/ha, scale 0 to 100): 0 | Plant response rating, Ducksalad (ducksalad; 500 g ai/ha, scale 0 to 100): 30 | Plant response rating, Ducksalad (ducksalad; 1000 g ai/ha, scale 0 to 100): 40

O=C1NC[C@@H](c2ccc(F)c(F)c2)[C@@H]1C(=O)Nc1ccccc1F [Compound 102]
Plant response rating, Wheat (wheat; [3]): 0 | Plant response rating, Wheat (wheat; [8]): 0 | Wheat plant response rating (wheat; [5]): 0 | Plant response rating, Wheat (wheat; [10]): 0 | Plant response rating, Crabgrass, Large (crabgrass, large; [3]): 0 | Plant response rating, Crabgrass, Large (crabgrass, large; [8]): 0 | Crabgrass, Large plant response rating (crabgrass, large; [5]): 0 | Plant response rating, Crabgrass, Large (crabgrass, large; [10]): 0 | Plant response rating, Rice (rice; [7]): 0 | Plant response rating, Rice (rice; 250 g ai/ha, scale 0 to 100): 0 | Plant response rating, Rice (rice; 500 g ai/ha, scale 0 to 100): 0 | Plant response rating, Rice (rice; 1000 g ai/ha, scale 0 to 100): 0 | Plant response rating, Barnyardgrass (barnyardgrass [1]; [3]): 0 | Plant response rating, Barnyardgrass (barnyardgrass [1]; [8]): 0 | Barnyardgrass plant response rating (barnyardgrass [1]; 125 g ai/ha): 0 | Plant response rating, Barnyardgrass (barnyardgrass [1]; [9]): 0 | Plant response rating, Corn (corn; [3]): 0 | Plant response rating, Corn (corn; [8]): 0 | Corn plant response rating (corn; [5]): 0 | Plant response rating, Corn (corn; [10]): 0 | Plant response rating, Velvetleaf (velvetleaf; [3]): 0 | Plant response rating, Velvetleaf (velvetleaf; [8]): 0 | Velvetleaf plant response rating (velvetleaf; [5]): 0 | Plant response rating, Velvetleaf (velvetleaf; [10]): 0 | Plant response rating, Foxtail, Giant (giant foxtail; [3]): 0 | Plant response rating, Foxtail, Giant (giant foxtail; [8]): 0 | Foxtail, Giant plant response rating (giant foxtail; 125 g ai/ha): 0 | Plant response rating, Foxtail, Giant (giant foxtail; [10]): 0 | Plant response rating, Morningglory (morningglory; [3]): 0 | Plant response rating, Morningglory (morningglory; [8]): 0 | Morningglory plant response rating (morningglory; [5]): 0 | Plant response rating, Morningglory (morningglory; [10]): 0 | Plant response rating, Pigweed (pigweed; [3]): 0 | Plant response rating, Pigweed (pigweed; [8]): 0 | Pigweed plant response rating (pigweed; 125 g ai/ha): 0 | Plant response rating, Pigweed (pigweed; [10]): 0 | Plant response rating, Sedge, Umbrella (sedge, umbrella; [7]): 0 | Plant response rating, Sedge, Umbrella (sedge, umbrella; 250 g ai/ha, scale 0 to 100): 0 | Plant response rating, Sedge, Umbrella (sedge, umbrella; 500 g ai/ha, scale 0 to 100): 0 | Plant response rating, Sedge, Umbrella (sedge, umbrella; 1000 g ai/ha, scale 0 to 100): 0 | Plant response rating, Barnyardgrass (barnyardgrass [2]; [7]): 0 | Plant response rating, Barnyardgrass (barnyardgrass [2]; 250 g ai/ha, scale 0 to 100): 0 | Plant response rating, Barnyardgrass (barnyardgrass [2]; 500 g ai/ha, scale 0 to 100): 0 | Plant response rating, Barnyardgrass (barnyardgrass [2]; 1000 g ai/ha, scale 0 to 100): 0 | Plant response rating, Ducksalad (ducksalad; [7]): 0 | Plant response rating, Ducksalad (ducksalad; 250 g ai/ha, scale 0 to 100): 0 | Plant response rating, Ducksalad (ducksalad; 500 g ai/ha, scale 0 to 100): 0 | Plant response rating, Ducksalad (ducksalad; 1000 g ai/ha, scale 0 to 100): 0
